Assay results from patent US20180263860A1, “DELIVERY SYSTEMS FOR APPLICATION OF ANTIBIOTIC GEL FORMULATION” (Indiana University Research and Technology Corporation, priority 2015, published 2018).
Entries after “also recorded” stand apart in the source; their conditions may differ.

Key:
[1] = tested on: three-week old E. faecalis biofilm; assay: Biofilm disruption assay on infected dentin samples (Example 2); format: cell-based, Enterococcus faecalis; conditions: immersion for 5 minutes
Description: Unidentified intact human teeth were collected, stored in 0.1% thymol solution at 4° C., and used within 6 months after obtaining local Institutional Review Board approval (IRB #1409251353). A standardized radicular dentin sample (4×4×1 mm^3) was obtained from each root using a slow diamond saw (IsoMet, Buehler, Lake Bluff, Ill.) under continuous distilled water irrigation. The pulpal side of each specimen was wet-finished with silicon carbide abrasive papers (500-2400 grit, Struers, Cleveland, Ohio). The polished samples were then sonicated in deionized water for 3 minutes, washed with sterile water, wrapped individually with moist cotton pellets, placed in Whirl-pak bags (Sigma-Aldrich, St Louis, Mo.), gas sterilized with ethylene oxide, and stored at 4° C. until used. E. faecalis (ATCC 29212) was grown initially on anaerobic blood agar plates (CDC, BioMerieux, Durham, N.C.). […] Dentin samples were placed individually in separate wells of a 96-sterile well plate (Fisherbrand, Fischer Scientific) with the pulpal side facing upwards. Then, 10 μl of an overnight E. faecalis culture (10^6 CFU/mL) dispersed in 190 μL of fresh BHI-YE growth media was added to each dentin specimen. […] The CFUs/mL were quantified using an automated colony counter (Synbiosis, Inc., Frederick, Md.). Summary statistics were calculated for the log-transformed data from each group. […]

[2] = tested on: stem cells from apical papillae and dental pulp stem cells; conditions: 2% CHX; recent in vitro studies; cited from earlier work

For OCl [NaOCl, sodium hypochlorite], the “antibiofilm effect (log CFU/mL)” value ([1]; 1.5% NaOCl) was “significant reduction and complete eradication of E. faecalis biofilm”.
For N=C(NCCCCCCNC(=N)NC(=N)Nc1ccc(Cl)cc1)NC(=N)Nc1ccc(Cl)cc1.O=C(O)[C@H](O)[C@@H](O)[C@H](O)[C@H](O)CO.O=C(O)[C@H](O)[C@@H](O)[C@H](O)[C@H](O)CO [CHX], the “effects on survival and attachment of stem cells from apical and dental pulp” value [2] is listed as “highly unfavorable effects” and the “antibiofilm effect (log CFU/mL)” value ([1]; 2% CHX) is listed as “significant reduction in E. faecalis biofilm; also recorded: nearly eliminate the bacterial biofilm”.
